Patent US20140350273A1, “PEDIATRIC USES OF CABAZITAXEL” (AVENTIS PHARMA S.A., priority 2012, published 2014)
Like-named read-outs stand apart in the source and are kept apart here.

System: human Ewing's sarcoma DM101
Format: in vivo
Conditions: for Tumor Volume Data (Day 11) Median / ΔT/ΔC %: day 11; for MTTE / T-C: volume endpoint 2000 mm^3; for tumor volume changes from baseline, Median +/− MAD: nude mice bearing DM101 Ewing's sarcoma
Protocol: The resultant solution contains 10 mg/mL of cabazitaxel. Stock solution of cabazitaxel was then diluted in 0.9% sodium chloride.
This efficacy may be quantified, for example, as changes in tumor volume for each treated (T) and control (C) group, which are calculated for each animal and each day by subtracting the tumor volume on the day of first treatment (staging day) from the tumor volume on the specified observation day. This allows calculating the tumor growth inhibition: ΔT/ΔC=(median delta T/median delta C)×100. Individual tumor volume changes from baseline are thereafter analyzed by a non-parametric two-way ANOVA-TYPE (with factors: group and repeated days) followed by a post-hoc contrasts analysis, with Bonferroni-Holm adjustment for multiplicity, comparing all treated groups to the control group. […] A probability less than 5% (p<0.05) was considered as significant.
Based on the National Cancer Institute (NCl) standards, a ΔT/ΔC≦40% is the minimal level required to declare activity.
This efficacy may also be quantified by the number of tumor regressions observed after therapy. Individual mice reporting a tumor volume ≦50% of the Day 0 measurement for two consecutive measurements over a seven day period were considered partial responders (PR). Individual mice lacking palpable tumors (<4×4 mm^2 for two consecutive measurements over a seven day period) were classified as complete responders (CR); a CR that persisted until study completion was considered a tumor-free survivor (TFS).
Efficacy could also be determined at study completion, using tumor growth delay (T-C) in days, which is calculated using the median time to endpoint (MTTE) value for each treatment (T) group versus control (C). A Log Rank multiple comparison test with Bonferroni-Holm adjustment for multiplicity was applied on individual TTE to compare the treated groups to the control group.
The animals subjected to the experiment are subcutaneously grafted unilaterally with approximately 30 mg of a tumor fragment from low passage pediatric patient-derived tumor xenografts. The animals are implanted with a human patient-derived pediatric tumor xenografted in immuno-compromised mice (Harlan; nu/nu). Several days post tumor implantation, mice are randomized according to their tumor burden to the different groups of treatments and controls. The agents are dosed intravenously at 5.8, 9.3, 15 or 24.2 mg/kg every 4 days for a total of 3 doses (q4d×3) to mice bearing a tumor burden at start of therapy (day 0) ranged from 125 to 250 mm^3.
Beginning Day 0, animals were observed daily and weighed twice weekly using a digital scale; data including individual and mean gram weights (Mean We±SD), mean percent weight change versus Day 0 were recorded for each group. Animal deaths were recorded daily and designated as drug-related (D), technical (T), tumor related (B), or unknown (U) based on weight loss and gross observation; single agent or combination groups reporting a mean >20% for a period of 7 days and/or >10% mortality were considered above the maximum tolerated dose (MTD) for that treatment on the evaluated regimen.
The selected tumor model, DM101, was a low passage patient-derived tumor xenograft derived from an Ewing's sarcoma taken from the bone of a patient.
The following end points were used: • Toxicity was declared at dosages inducing ≧20% body weight loss or ≧10% drug death; • Antitumor efficacy was determined by calculating the ΔT/ΔC value in percent on day 11 post treatment initiation, according to the above mentioned formula; • Individual tumor volume changes from baseline were analyzed by a non-parametric two-way ANOVA-TYPE (with factors: group and repeated day from 4 to 14) followed by a post-hoc contrasts analysis, with Bonferroni-Holm adjustment for multiplicity, comparing all treated groups to the control group on day 11. […] The volume endpoint for T-C calculations was chosen to be 2000 mm^3.

CO[C@H]1C(=O)[C@]2(C)[C@@H](OC)C[C@H]3OC[C@@]3(OC(C)=O)[C@H]2[C@H](OC(=O)c2ccccc2)[C@]2(O)C[C@H](OC(=O)[C@H](O)[C@@H](NC(=O)OC(C)(C)C)c3ccccc3)C(C)=C1C2(C)C [Cabazitaxel, 4α-acetoxy-2α-benzoyloxy-5β,20-epoxy-1β-hydroxy-7β,10β-dimethoxy-9-oxo-11-taxen-13α-yl (2R,3S)-3-tert-butoxycarbonyl-amino-2-hydroxy-3-phenylpropionate]
#CR (5.8 mg/kg i.v./q4d × 3): 0/0/0
#PR (5.8 mg/kg i.v./q4d × 3): 0/0/0
#TFS (5.8 mg/kg i.v./q4d × 3): 0/0/0
Drug Deaths Total (5.8 mg/kg i.v./q4d × 3): 0
Tumor Volume Data (Day 11) Median (5.8 mg/kg i.v./q4d × 3): 204 mm^3
ΔT/ΔC % (5.8 mg/kg i.v./q4d × 3): 8.9%
MTTE (5.8 mg/kg i.v./q4d × 3): 34.8 days
T-C (5.8 mg/kg i.v./q4d × 3): 17.9 days
tumor volume changes from baseline, Median +/− MAD (5.8 mg/kg, DAY 4): 0 +/− 0 (n = 9)
tumor volume changes from baseline, Median +/− MAD (5.8 mg/kg, DAY 7): 34 +/− 34
tumor volume changes from baseline, Median +/− MAD (5.8 mg/kg, DAY 11): 73 +/− 73
tumor volume changes from baseline, Median +/− MAD (5.8 mg/kg, DAY 14): 155 +/− 136
tumor volume changes from baseline, Median +/− MAD (5.8 mg/kg, DAY 17): 306 +/− 152
tumor volume changes from baseline, Median +/− MAD (5.8 mg/kg, DAY 20): 489 +/− 199
tumor volume changes from baseline, Median +/− MAD (5.8 mg/kg, DAY 25): 696.5
tumor volume changes from baseline, Median +/− MAD (5.8 mg/kg, DAY 28): 1097 +/− 117
tumor volume changes from baseline, Median +/− MAD (5.8 mg/kg, DAY 32): 1396
#CR (9.3 mg/kg i.v./q4d × 3): 1/1/1
#PR (9.3 mg/kg i.v./q4d × 3): 1/1/1
#TFS (9.3 mg/kg i.v./q4d × 3): 1/1/1
Drug Deaths Total (9.3 mg/kg i.v./q4d × 3): 0
Weight Nadir % (9.3 mg/kg i.v./q4d × 3): −2%
Weight Nadir Day (9.3 mg/kg i.v./q4d × 3): 7
Tumor Volume Data (Day 11) Median (9.3 mg/kg i.v./q4d × 3): 255 mm^3
ΔT/ΔC % (9.3 mg/kg i.v./q4d × 3): 9.4%
MTTE (9.3 mg/kg i.v./q4d × 3): 23.9 days
T-C (9.3 mg/kg i.v./q4d × 3): 7 days
tumor volume changes from baseline, Median +/− MAD (9.3 mg/kg, DAY 4): 0 +/− 33
tumor volume changes from baseline, Median +/− MAD (9.3 mg/kg, DAY 7): 13 +/− 41
tumor volume changes from baseline, Median +/− MAD (9.3 mg/kg, DAY 11): 77 +/− 118
tumor volume changes from baseline, Median +/− MAD (9.3 mg/kg, DAY 14): 188 +/− 241
tumor volume changes from baseline, Median +/− MAD (9.3 mg/kg, DAY 17): 498 +/− 485
tumor volume changes from baseline, Median +/− MAD (9.3 mg/kg, DAY 20): 766 +/− 713
tumor volume changes from baseline, Median +/− MAD (9.3 mg/kg, DAY 25): 1095
tumor volume changes from baseline, Median +/− MAD (9.3 mg/kg, DAY 28): 182.5 +/− 248
tumor volume changes from baseline, Median +/− MAD (9.3 mg/kg, DAY 32): 385 +/− 414
#CR (15 mg/kg i.v./q4d × 3): 9
#PR (15 mg/kg i.v./q4d × 3): 9
#TFS (15 mg/kg i.v./q4d × 3): 7
Drug Deaths Total (15 mg/kg i.v./q4d × 3): 0
Weight Nadir % (15 mg/kg i.v./q4d × 3): −3%
Weight Nadir Day (15 mg/kg i.v./q4d × 3): 7
Tumor Volume Data (Day 11) Median (15 mg/kg i.v./q4d × 3): 0 mm^3
ΔT/ΔC % (15 mg/kg i.v./q4d × 3): −16%
MTTE (15 mg/kg i.v./q4d × 3): >61 days
T-C (15 mg/kg i.v./q4d × 3): >44.1 days
CR (15 mg/kg q4d×3 IV): 9/9
TFS (15 mg/kg q4d×3 IV): 7/9
tumor volume changes from baseline, Median +/− MAD (15 mg/kg, DAY 4): 0 +/− 0 (n = 9)
tumor volume changes from baseline, Median +/− MAD (15 mg/kg, DAY 7): −113 +/− 32
tumor volume changes from baseline, Median +/− MAD (15 mg/kg, DAY 11): −131 +/− 47
tumor volume changes from baseline, Median +/− MAD (15 mg/kg, DAY 14): −131 +/− 47
tumor volume changes from baseline, Median +/− MAD (15 mg/kg, DAY 17): −131 +/− 47
tumor volume changes from baseline, Median +/− MAD (15 mg/kg, DAY 20): −131 +/− 47
tumor volume changes from baseline, Median +/− MAD (15 mg/kg, DAY 25): −131 +/− 47
tumor volume changes from baseline, Median +/− MAD (15 mg/kg, DAY 28): −131 +/− 47
tumor volume changes from baseline, Median +/− MAD (15 mg/kg, DAY 32): −131 +/− 40
#CR (24.2 mg/kg i.v./q4d × 3): 9
#PR (24.2 mg/kg i.v./q4d × 3): 9
#TFS (24.2 mg/kg i.v./q4d × 3): 8
Drug Deaths Total (24.2 mg/kg i.v./q4d × 3): 0
Weight Nadir % (24.2 mg/kg i.v./q4d × 3): −5%
Weight Nadir Day (24.2 mg/kg i.v./q4d × 3): 11
Tumor Volume Data (Day 11) Median (24.2 mg/kg i.v./q4d × 3): 0 mm^3
ΔT/ΔC % (24.2 mg/kg i.v./q4d × 3): −18.3%
MTTE (24.2 mg/kg i.v./q4d × 3): >61 days
T-C (24.2 mg/kg i.v./q4d × 3): >44.1 days
CR (24.2 mg/kg q4d×3 IV): 9/9
TFS (24.2 mg/kg q4d×3 IV): 8/9
tumor volume changes from baseline, Median +/− MAD (24.2 mg/kg, DAY 4): −19 +/− 19
tumor volume changes from baseline, Median +/− MAD (24.2 mg/kg, DAY 7): −150 +/− 52
tumor volume changes from baseline, Median +/− MAD (24.2 mg/kg, DAY 11): −150 +/− 38
tumor volume changes from baseline, Median +/− MAD (24.2 mg/kg, DAY 14): −150 +/− 38
tumor volume changes from baseline, Median +/− MAD (24.2 mg/kg, DAY 17): −150 +/− 38
tumor volume changes from baseline, Median +/− MAD (24.2 mg/kg, DAY 20): −150 +/− 38
tumor volume changes from baseline, Median +/− MAD (24.2 mg/kg, DAY 25): −150 +/− 38
tumor volume changes from baseline, Median +/− MAD (24.2 mg/kg, DAY 28): −150 +/− 38
tumor volume changes from baseline, Median +/− MAD (24.2 mg/kg, DAY 32): −150 +/− 38
antitumor activity compared with docetaxel (conclusion of example 6, 15 or 24.2 mg/kg, same or equi-toxic dose): significantly more active than docetaxel
